Results published in ChEMBL document CHEMBL4340570, “Design, synthesis, and biological evaluation of novel 4-oxobenzo[d]1,2,3-triazin-benzylpyridinum derivatives as potent anti-Alzheimer agents” (Bioorg Med Chem, 2019).
Active and inactive are the calls of the source. The calls are words filed in the database; no cut-off is given here.

Key:
Acetylcholinesterase [1] = target: T1, Acetylcholinesterase (Electrophorus electricus, UniProt O42275); experiment: Inhibition of electric eel AChE pre-incubated for 5 mins before acetylthiocholine iodide substrate addition and measured after 15 mins by Ellman's method
PC-12 [2] = experiment: Neuroprotective activity in rat PC12 cells assessed as protection against H2O2-induced cytotoxicity at 1 uM pre-incubated for 3 hrs before H2O2 addition and measured after 12 hrs by MTT assay; type: functional, cell-based
Cholinesterase = Cholinesterase (Equus caballus, UniProt P81908); experiment: Inhibition of equine serum BuChE pre-incubated for 5 mins before butyrylthiocholine iodide substrate addition and measured after 15 mins by Ellman's method
PC-12 [3] = experiment: Neuroprotective activity in rat PC12 cells assessed as protection against H2O2-induced cytotoxicity at 100 uM pre-incubated for 3 hrs before H2O2 addition and measured after 12 hrs by MTT assay; type: functional, cell-based
[4] = target: Beta-secretase 1 (Homo sapiens) (UniProt P56817); experiment: Inhibition of recombinant human BACE1 (1 to 460 residues) expressed in baculovirus-infected insect cells at 50 uM using Rh-EVNLDAEFK-quencher as substrate measured after 90 mins by FRET assay relative to control
[5] = target: Beta-secretase 1 (Homo sapiens) (UniProt P56817); experiment: Inhibition of recombinant human BACE1 (1 to 460 residues) expressed in baculovirus-infected insect cells at 10 uM using Rh-EVNLDAEFK-quencher as substrate measured after 90 mins by FRET assay relative to control
Acetylcholinesterase [6] = target: T1, Acetylcholinesterase; experiment: Mixed type inhibition of electric eel AChE pre-incubated for 5 mins before acetylthiocholine iodide substrate addition and measured after 15 mins by modified Ellman's method baaed Lineweaver-Burk plot analysis
PC-12 [7] = experiment: Neuroprotective activity in rat PC12 cells assessed as protection against H2O2-induced cytotoxicity at 10 uM pre-incubated for 3 hrs before H2O2 addition and measured after 12 hrs by MTT assay; type: functional, cell-based

T1 sequence (O42275 whole entry): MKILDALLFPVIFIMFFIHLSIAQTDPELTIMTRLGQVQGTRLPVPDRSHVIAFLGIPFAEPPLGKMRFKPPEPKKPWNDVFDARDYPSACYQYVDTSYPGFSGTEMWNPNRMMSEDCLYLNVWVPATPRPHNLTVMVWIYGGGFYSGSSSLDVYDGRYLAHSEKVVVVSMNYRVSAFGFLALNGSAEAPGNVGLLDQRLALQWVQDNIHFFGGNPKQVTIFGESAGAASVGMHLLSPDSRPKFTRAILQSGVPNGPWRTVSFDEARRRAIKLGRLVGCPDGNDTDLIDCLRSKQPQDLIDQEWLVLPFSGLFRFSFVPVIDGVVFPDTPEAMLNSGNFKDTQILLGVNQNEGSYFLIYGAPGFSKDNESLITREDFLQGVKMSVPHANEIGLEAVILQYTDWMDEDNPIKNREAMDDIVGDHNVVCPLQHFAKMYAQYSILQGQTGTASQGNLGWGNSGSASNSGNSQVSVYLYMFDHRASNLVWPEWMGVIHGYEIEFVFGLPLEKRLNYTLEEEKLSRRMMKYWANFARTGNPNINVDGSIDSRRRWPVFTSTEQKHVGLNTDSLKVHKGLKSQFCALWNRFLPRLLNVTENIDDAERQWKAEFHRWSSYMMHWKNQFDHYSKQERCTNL
Sequence of Cholinesterase (P81908 whole entry): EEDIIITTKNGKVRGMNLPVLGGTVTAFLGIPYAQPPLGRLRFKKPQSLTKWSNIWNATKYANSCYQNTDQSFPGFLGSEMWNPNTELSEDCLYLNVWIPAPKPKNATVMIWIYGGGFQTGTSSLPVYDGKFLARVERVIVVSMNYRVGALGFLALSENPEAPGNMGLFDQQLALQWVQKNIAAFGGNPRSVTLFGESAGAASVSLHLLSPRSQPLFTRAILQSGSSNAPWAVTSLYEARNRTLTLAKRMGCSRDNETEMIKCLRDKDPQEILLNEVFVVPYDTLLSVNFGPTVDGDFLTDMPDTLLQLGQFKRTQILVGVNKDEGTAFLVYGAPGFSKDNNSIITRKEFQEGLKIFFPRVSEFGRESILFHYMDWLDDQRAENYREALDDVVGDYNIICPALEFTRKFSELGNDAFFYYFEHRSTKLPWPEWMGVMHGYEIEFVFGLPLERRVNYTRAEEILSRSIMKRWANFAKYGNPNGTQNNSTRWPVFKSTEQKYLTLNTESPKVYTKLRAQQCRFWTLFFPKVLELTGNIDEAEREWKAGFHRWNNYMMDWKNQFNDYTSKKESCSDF
Sequence of Beta-secretase 1 (Homo sapiens) (P56817 whole entry, the tested form may be a part): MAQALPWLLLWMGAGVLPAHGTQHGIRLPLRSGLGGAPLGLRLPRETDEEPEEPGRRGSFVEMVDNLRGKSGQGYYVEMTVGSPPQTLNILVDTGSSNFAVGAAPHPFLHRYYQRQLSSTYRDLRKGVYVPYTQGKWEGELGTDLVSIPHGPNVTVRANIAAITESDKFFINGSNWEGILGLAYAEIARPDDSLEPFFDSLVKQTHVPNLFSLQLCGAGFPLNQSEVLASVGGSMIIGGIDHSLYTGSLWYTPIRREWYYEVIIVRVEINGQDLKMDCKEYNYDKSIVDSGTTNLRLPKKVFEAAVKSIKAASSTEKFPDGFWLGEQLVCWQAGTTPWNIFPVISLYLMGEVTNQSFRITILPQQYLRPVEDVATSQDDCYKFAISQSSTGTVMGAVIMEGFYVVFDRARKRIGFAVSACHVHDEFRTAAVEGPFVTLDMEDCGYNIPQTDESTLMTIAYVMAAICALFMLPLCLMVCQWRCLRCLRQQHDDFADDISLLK

Row | SMILES | IC50 (Acetylcholinesterase [1]) | IC50 (Cholinesterase) | further results
1 | O=c1c2ccccc2nnn1Cc1ccc[n+](Cc2ccc(F)cc2)c1 | 0.15 µM | 23.8 µM | Activity (PC-12 [2]): Active
2 | O=c1c2ccccc2nnn1Cc1ccc[n+](Cc2ccccc2[N+](=O)[O-])c1 | 0.1 µM | 17.5 µM | Activity (PC-12 [3]): Active; inhibition [4]: 61.2%; inhibition [5]: 37%; Ki (Acetylcholinesterase [6]): 0.017 µM
3 | O=c1c2ccccc2nnn1Cc1ccc[n+](Cc2ccccc2Br)c1 | 0.15 µM | 16.8 µM | Activity (PC-12 [3]): Active; Activity (PC-12 [2]): Active; Activity (PC-12 [7]): Active
4 | Cc1ccccc1C[n+]1cccc(Cn2nnc3ccccc3c2=O)c1 | 0.2 µM | 13.7 µM | –
5 | O=c1c2ccccc2nnn1Cc1ccc[n+](Cc2c(Cl)cccc2Cl)c1 | 0.73 µM | 21.6 µM | –
6 | O=c1c2ccccc2nnn1Cc1ccc[n+](Cc2cccc(Br)c2)c1 | 0.3 µM | 14.7 µM | –
7 | O=c1c2ccccc2nnn1Cc1ccc[n+](Cc2cccc(F)c2)c1 | 0.17 µM | 27.8 µM | –
8 | O=c1c2ccccc2nnn1Cc1cc[n+](Cc2ccccc2)cc1 | 1.34 µM | 75.2 µM | –
9 | O=c1c2ccccc2nnn1Cc1ccc[n+](Cc2ccccc2F)c1 | 0.29 µM | 23.9 µM | –
10 | O=c1c2ccccc2nnn1Cc1cc[n+](Cc2ccc(Br)cc2)cc1 | 1.18 µM | 51.8 µM | –
11 | O=c1c2ccccc2nnn1Cc1ccc[n+](Cc2ccc([N+](=O)[O-])cc2)c1 | 0.16 µM | 17.2 µM | –
12 | O=c1c2ccccc2nnn1Cc1ccc[n+](Cc2ccccc2)c1 | 0.17 µM | 31.2 µM | –
13 | O=c1c2ccccc2nnn1Cc1cc[n+](Cc2ccccc2F)cc1 | 1.68 µM | 64.6 µM | –
14 | O=c1c(O)c(-c2ccc(O)c(O)c2)oc2cc(O)cc(O)c12 | – | – | Activity (PC-12 [7]): Active
15 | O=c1c2ccccc2nnn1Cc1cc[n+](Cc2ccccc2[N+](=O)[O-])cc1 | 1.3 µM | 18.2 µM | –
16 | O=c1c2ccccc2nnn1Cc1ccc[n+](Cc2ccc(Br)cc2)c1 | 0.84 µM | 5.8 µM | –
17 | O=c1c2ccccc2nnn1Cc1cc[n+](Cc2ccccc2Cl)cc1 | 1.37 µM | 55 µM | –
18 | O=c1c2ccccc2nnn1Cc1cc[n+](Cc2ccc(F)cc2)cc1 | 1.64 µM | 70.7 µM | –
